Results reported in BindingDB's records for patent US20230348421 (Geneora Pharma (Shijiazhuang) Co., 2023).

Molecular target: hERG (Potassium voltage-gated channel subfamily H member 2) (Homo sapiens, UniProt Q12809)
Assay: Electrophysiological Assay
Details: CHO cells stably expressing hERG potassium channels
Experimental: CHO (Chinese Hamster Ovary) cells stably expressing hERG potassium channels were taken, and hERG potassium channel currents were recorded at room temperature by means of a whole-cell patch-clamp technique. A glass microelectrode was formed by pulling a glass electrode blank (BF150-86-10, Sutter) with a glass microelectrode puller. The tip resistance was about 2-5 MΩ after perfusion of a pippette solution. The glass microelectrode could be connected to a patch clamp amplifier by inserting the glass microelectrode into an amplifier probe. Clamping voltages and data recording were controlled and recorded by a computer with pClamp 10 software, with a sampling frequency of 10 kHz and a filtering frequency of 2 kHz. After the whole-cell recording was obtained, the cells were clamped at −80 mV, and the step voltage evoking hERG potassium current (I hERG) was changed from −80 mV to +20 mV by giving a 2 s depolarization voltage and then repolarized to −50 mV for 1 s, and returned to −80 mV. Such voltage stimulation was given every 10 s, and the administration process was started after it was determined that the hERG potassium currents were stable (1 min). The compound at each test concentration was given at least 1 min, and at least 2 cells (n≥2) were tested for each concentration.

Chain of hERG (Potassium voltage-gated channel subfamily H member 2) (Q12809 whole entry): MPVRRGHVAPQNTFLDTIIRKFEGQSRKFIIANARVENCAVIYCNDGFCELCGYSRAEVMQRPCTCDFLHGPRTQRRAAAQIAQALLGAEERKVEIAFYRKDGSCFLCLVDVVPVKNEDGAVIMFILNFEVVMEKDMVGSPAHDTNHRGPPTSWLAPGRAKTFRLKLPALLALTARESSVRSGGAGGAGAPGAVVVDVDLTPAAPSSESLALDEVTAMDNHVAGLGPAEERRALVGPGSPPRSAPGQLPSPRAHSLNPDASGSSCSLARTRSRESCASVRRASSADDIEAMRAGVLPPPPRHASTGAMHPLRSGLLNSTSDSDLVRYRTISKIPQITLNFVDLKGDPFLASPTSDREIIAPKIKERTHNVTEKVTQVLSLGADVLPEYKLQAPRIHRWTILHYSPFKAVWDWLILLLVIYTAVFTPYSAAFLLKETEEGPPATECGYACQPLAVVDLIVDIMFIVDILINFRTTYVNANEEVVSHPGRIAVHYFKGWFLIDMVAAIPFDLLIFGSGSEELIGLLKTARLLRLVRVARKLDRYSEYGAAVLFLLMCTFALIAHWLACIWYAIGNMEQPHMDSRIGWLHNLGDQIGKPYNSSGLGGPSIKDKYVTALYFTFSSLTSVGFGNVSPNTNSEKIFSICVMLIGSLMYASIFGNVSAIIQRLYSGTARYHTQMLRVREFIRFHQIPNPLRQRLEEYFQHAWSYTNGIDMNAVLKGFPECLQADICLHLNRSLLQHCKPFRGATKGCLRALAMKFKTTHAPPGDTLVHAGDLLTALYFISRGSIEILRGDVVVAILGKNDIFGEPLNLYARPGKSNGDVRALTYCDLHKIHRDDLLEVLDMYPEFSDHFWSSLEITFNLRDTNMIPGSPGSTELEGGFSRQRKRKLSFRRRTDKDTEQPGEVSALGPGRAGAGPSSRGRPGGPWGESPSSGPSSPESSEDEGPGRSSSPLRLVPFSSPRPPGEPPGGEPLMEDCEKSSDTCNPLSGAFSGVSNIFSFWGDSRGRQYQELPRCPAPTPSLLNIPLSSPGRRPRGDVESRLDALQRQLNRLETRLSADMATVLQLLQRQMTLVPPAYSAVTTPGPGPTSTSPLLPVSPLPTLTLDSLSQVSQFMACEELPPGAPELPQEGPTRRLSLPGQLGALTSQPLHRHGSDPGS

In the case of `CN1CCC(N(Cc2ccc(F)cn2)C(=O)NCc2ccc3c(c2)CC(C(F)(F)F)O3)CC1` (stereo unspecified) [US20230348421, Compound 89], the IC50 is reported as 2050 nM.
